Results published in ChEMBL document CHEMBL1152938, “Synthesis and structure-activity relationships of C-glycosylated oxadiazoles as inhibitors of glycogen phosphorylase” (Bioorg Med Chem, 2009).
The source made the active and inactive calls. The rule behind the calls is not given here.

Each compound was assayed against T1, Glycogen phosphorylase, muscle form (Oryctolagus cuniculus) (UniProt P00489) (assay: Inhibition of rabbit muscle glycogen phosphorylase b at 625 uM).
T1 sequence (whole entry): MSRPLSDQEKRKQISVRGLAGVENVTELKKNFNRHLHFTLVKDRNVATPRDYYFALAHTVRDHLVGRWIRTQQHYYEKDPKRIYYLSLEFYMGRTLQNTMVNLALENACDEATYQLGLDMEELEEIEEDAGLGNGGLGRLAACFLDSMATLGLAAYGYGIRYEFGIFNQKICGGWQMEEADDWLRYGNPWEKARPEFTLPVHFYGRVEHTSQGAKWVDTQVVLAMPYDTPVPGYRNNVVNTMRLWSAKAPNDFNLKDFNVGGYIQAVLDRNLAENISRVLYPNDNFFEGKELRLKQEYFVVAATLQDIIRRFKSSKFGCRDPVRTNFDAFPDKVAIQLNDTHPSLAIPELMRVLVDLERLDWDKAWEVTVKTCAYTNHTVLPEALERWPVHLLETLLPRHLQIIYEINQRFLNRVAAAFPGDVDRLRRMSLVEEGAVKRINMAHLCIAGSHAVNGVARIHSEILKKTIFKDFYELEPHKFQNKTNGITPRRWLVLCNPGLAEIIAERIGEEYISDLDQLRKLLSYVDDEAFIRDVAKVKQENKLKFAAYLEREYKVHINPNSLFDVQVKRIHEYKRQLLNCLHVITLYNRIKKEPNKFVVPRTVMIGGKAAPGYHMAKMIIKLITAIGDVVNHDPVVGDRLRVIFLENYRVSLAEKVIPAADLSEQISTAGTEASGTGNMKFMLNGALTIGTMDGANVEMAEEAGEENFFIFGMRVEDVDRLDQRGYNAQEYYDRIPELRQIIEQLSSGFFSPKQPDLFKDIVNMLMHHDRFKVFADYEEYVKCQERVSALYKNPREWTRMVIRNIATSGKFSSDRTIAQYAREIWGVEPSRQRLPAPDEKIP

SMILES | inhibition
OC[C@H]1O[C@@H](c2nnc(-c3ccc(O)cc3)o2)[C@H](O)[C@@H](O)[C@@H]1O | inactive
O=[N+]([O-])c1ccc(-c2nnc([C@@H]3O[C@H](CO)[C@@H](O)[C@H](O)[C@H]3O)o2)cc1 | inactive
COc1ccc(-c2nnc([C@@H]3O[C@H](CO)[C@@H](O)[C@H](O)[C@H]3O)o2)cc1 | inactive
Cc1nc([C@@H]2O[C@H](CO)[C@@H](O)[C@H](O)[C@H]2O)no1 | inactive
OC[C@H]1O[C@@H](c2noc(-c3ccccc3)n2)[C@H](O)[C@@H](O)[C@@H]1O | 10%
OC[C@H]1O[C@@H](c2nnc(-c3ccccc3)o2)[C@H](O)[C@@H](O)[C@@H]1O | 10%
O=[N+]([O-])c1ccc(-c2nc([C@@H]3O[C@H](CO)[C@@H](O)[C@H](O)[C@H]3O)no2)cc1 | inactive
OC[C@H]1O[C@@H](c2noc(-c3cccc4ccccc34)n2)[C@H](O)[C@@H](O)[C@@H]1O | inactive
OC[C@H]1O[C@@H](c2nc(-c3ccc(OCc4ccccc4)cc3)no2)[C@H](O)[C@@H](O)[C@@H]1O | inactive
OC[C@H]1O[C@@H](c2nnc(-c3ccc4ccccc4c3)o2)[C@H](O)[C@@H](O)[C@@H]1O | 10%
Cc1ccc(-c2nnc([C@@H]3O[C@H](CO)[C@@H](O)[C@H](O)[C@H]3O)o2)cc1 | inactive
Nc1ccc(-c2nnc([C@@H]3O[C@H](CO)[C@@H](O)[C@H](O)[C@H]3O)o2)cc1 | inactive
OC[C@H]1O[C@@H](c2nnc(-c3cccc4ccccc34)o2)[C@H](O)[C@@H](O)[C@@H]1O | 10%
Nc1ccc(-c2noc([C@@H]3O[C@H](CO)[C@@H](O)[C@H](O)[C@H]3O)n2)cc1 | 20%

These compounds were tested against T2, Glycogen phosphorylase, muscle form (Oryctolagus cuniculus, UniProt P00489).
T2 sequence (P00489 whole entry): T1 sequence (whole entry)

SMILES | Ki [µM] | IC50 [µM]
Cc1ccc(C(=O)NC(=O)N[C@@H]2O[C@H](CO)[C@@H](O)[C@H](O)[C@H]2O)cc1 | 2.3 | 
OC[C@H]1O[C@@H](c2nc(-c3ccccc3)no2)[C@H](O)[C@@H](O)[C@@H]1O | 64 | 
Cc1ccc(-c2nc([C@@H]3O[C@H](CO)[C@@H](O)[C@H](O)[C@H]3O)no2)cc1 |  | 350
OC[C@H]1O[C@@H](c2nc(-c3ccc4ccccc4c3)no2)[C@H](O)[C@@H](O)[C@@H]1O | 2.4 | 
O=[N+]([O-])c1ccc(-c2noc([C@@H]3O[C@H](CO)[C@@H](O)[C@H](O)[C@H]3O)n2)cc1 |  | 650
OC[C@H]1O[C@@H](c2nc(-c3ccc(O)cc3)no2)[C@H](O)[C@@H](O)[C@@H]1O | 19.4 | 
OC[C@H]1O[C@@H](c2nc(-c3cccc4ccccc34)no2)[C@H](O)[C@@H](O)[C@@H]1O | 19 | 
Cc1nnc(C2O[C@H](CO)[C@@H](O)[C@H](O)[C@H]2O)o1 (single isomer, unassigned) | 145 | 
Cc1ccc(C(=O)N[C@@H]2O[C@H](CO)[C@@H](O)[C@H](O)[C@H]2O)cc1 |  | 4500
O=C(NC(=O)c1cccc2ccccc12)N[C@@H]1O[C@H](CO)[C@@H](O)[C@H](O)[C@H]1O | 15 | 
OC[C@H]1O[C@@H](c2nc(-c3ccc4c(c3)OCO4)no2)[C@H](O)[C@@H](O)[C@@H]1O |  | > 625
Nc1ccc(C(=O)NC(=O)N[C@@H]2O[C@H](CO)[C@@H](O)[C@H](O)[C@H]2O)cc1 | 6 | 
COc1ccc(-c2noc([C@@H]3O[C@H](CO)[C@@H](O)[C@H](O)[C@H]3O)n2)cc1 | 20.4 | 
COc1ccc(-c2nc([C@@H]3O[C@H](CO)[C@@H](O)[C@H](O)[C@H]3O)no2)cc1 |  | 550
O=C(NC(=O)c1ccc(O)cc1)N[C@@H]1O[C@H](CO)[C@@H](O)[C@H](O)[C@H]1O | 6.3 | 
Cc1ccc(-c2noc([C@@H]3O[C@H](CO)[C@@H](O)[C@H](O)[C@H]3O)n2)cc1 | 8.8 | 
OC[C@H]1O[C@@H](c2noc(-c3ccc4ccccc4c3)n2)[C@H](O)[C@@H](O)[C@@H]1O | 38 | 
O=C(NC(=O)c1ccc([N+](=O)[O-])cc1)N[C@@H]1O[C@H](CO)[C@@H](O)[C@H](O)[C@H]1O | 3.3 | 
OC[C@H]1O[C@@H](c2nc3ccccc3s2)[C@H](O)[C@@H](O)[C@@H]1O | 76 | 
